Patent publication US20020169101A1, “Treatment of sexual dysfunction” (priority 1999, published 2002)
Read-outs that look alike come from different tables or passages of the source.

Columns and labels:
[1] = molecular target: T1, human NMB receptor (BB1) (Homo sapiens, UniProt P28336); test: BB1 binding assay ([125I][Tyr4]bombesin displacement, CHO-K1 membranes)
T1 construct: expressed in transfected cells; membranes prepared from the cells
Protocol: (§1) In the following experiments, measurement of BB1 and BB2 binding was as follows. CHO-K1 cells stably expressing cloned human NMB (for (BB1 assay) and GRP receptors (for BB2 assay) were routinely grown in Ham's F12 culture medium supplemented with 10% foetal calf serum and 2 mM glutamine. For binding experiments, cells were harvested by trypsinization, and stored frozen at −70° C. in Ham's F12 culture medium containing 5% DMSO until required. On the day of use, cells were thawed rapidly, diluted with an excess of culture medium, and centrifuged for 5 minutes at 2000 g. Cells were resuspended in 50 mM Tris-HCl assay buffer (pH 7.4 at 21° C., containing 0.02% BSA, 40 μg/mL bacitracin, 2 μg/mL chymostatin, 4 μg/mL leupeptin, and 2 μM phosphoramidon), counted, and polytronned (setting 5, 10 sec) before centrifuging for 10 minutes at 28,000 g. The final pellet was resuspended in assay buffer to a final cell concentration of 1.5×10^5/mL. For binding assays, […] aliquots of membranes were incubated with [^125I][Tyr^4]bombesin (<0.1 nM) in the presence and absence of test compounds (final assay volume 250 μL) for 60 minutes and 90 minutes for NMB and GRP receptors, respectively. Nonspecific binding was defined by 1 μM bombesin. Assays were terminated by rapid filtration under vacuum onto Whatman GF/C filters presoaked in 0.2% PEI for >2 hours, and washed 50 mM Tris-HCl (pH 6.9 at 21° C.; 6×1 mL). Radioactivity bound was determined using a gamma counter.
(§2) All competition data was analysed using nonlinear regression utilizing iterative curve-plotting procedures in Prism® (GraphPad Software Inc., San Diego, USA). IC50 values were corrected to Ki values using the Cheng-Prusoff equation (Cheng Y., Prusoff W. H., Biochem. Pharmacol. 22: 3099-3108, 1973). obtained are listed in Table 1.

[2] = molecular target: T2, human GRP receptor (BB2) (Homo sapiens, UniProt P30550); test: BB2 binding assay ([125I][Tyr4]bombesin displacement, CHO-K1 membranes)
T2 construct: expressed in transfected cells; membranes prepared from the cells
T2 sequence (P30550 whole entry): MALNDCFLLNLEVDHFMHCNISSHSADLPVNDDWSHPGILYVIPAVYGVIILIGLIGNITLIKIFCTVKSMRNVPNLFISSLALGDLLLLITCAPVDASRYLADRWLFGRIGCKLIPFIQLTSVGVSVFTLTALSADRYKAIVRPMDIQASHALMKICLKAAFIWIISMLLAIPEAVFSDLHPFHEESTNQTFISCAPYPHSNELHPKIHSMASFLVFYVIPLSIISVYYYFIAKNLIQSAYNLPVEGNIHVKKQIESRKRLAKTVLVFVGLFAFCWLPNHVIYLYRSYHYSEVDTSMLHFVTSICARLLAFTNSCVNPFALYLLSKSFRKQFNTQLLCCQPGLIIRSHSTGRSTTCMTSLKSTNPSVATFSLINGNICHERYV
Protocol: as §1, §2

[3] = second 'TABLE 4', N-terminal urethane derivatives of Intermediate III-7
[4] = Table 3, N-acyl derivatives of Intermediate III-7

T1 sequence (P28336 whole entry): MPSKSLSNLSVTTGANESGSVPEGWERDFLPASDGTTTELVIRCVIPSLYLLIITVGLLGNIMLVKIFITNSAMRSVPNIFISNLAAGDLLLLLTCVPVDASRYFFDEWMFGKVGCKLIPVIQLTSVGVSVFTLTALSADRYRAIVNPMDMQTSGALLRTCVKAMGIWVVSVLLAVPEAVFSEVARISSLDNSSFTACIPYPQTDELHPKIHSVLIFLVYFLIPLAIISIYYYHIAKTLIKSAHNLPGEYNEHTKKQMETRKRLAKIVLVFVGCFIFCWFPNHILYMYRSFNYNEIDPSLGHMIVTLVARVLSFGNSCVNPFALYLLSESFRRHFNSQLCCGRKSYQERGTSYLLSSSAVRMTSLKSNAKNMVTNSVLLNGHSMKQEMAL

IC50 [1, 3]	IC50 [2, 3]	IC50 [1, 4]	IC50 [2, 4]	Compound	also measured
1060 nM	> 10000 nM	–	–	CCOc1cccc(COC(=O)N[C@@](C)(Cc2c[nH]c3ccccc23)C(=O)NCC2(c3ccccn3)CCCCC2)c1 [Example 102, {(S)-2-(1H-Indol-3-yl)-1-methyl-1-[(1-pyridin-2-yl-cyclohexylmethyl)-carbamoyl]-ethyl}-carbamic acid 3-ethoxy-benzyl ester]	–
1350 nM	> 10000 nM	–	–	C[C@@](Cc1c[nH]c2ccccc12)(NC(=O)OCc1cccc(Oc2ccccc2)c1)C(=O)NCC1(c2ccccn2)CCCCC1 [Example 106, {(S)-2-(1H-Indol-3-yl)-1-methyl-1-[(1-pyridin-2-yl-cyclohexylmethyl)-carbamoyl]-ethyl}-carbamic acid 3-phenoxy-benzyl ester]	–
1080 nM	> 10000 nM	–	–	Cc1ccc(COC(=O)N[C@@](C)(Cc2c[nH]c3ccccc23)C(=O)NCC2(c3ccccn3)CCCCC2)cc1 [Example 108, {(S)-2-(1H-Indol-3-yl)-1-methyl-1-[(1-pyridin-2-yl-cyclohexylmethyl)-carbamoyl]-ethyl}-carbamic acid 4-methyl-benzyl ester]	–
182 nM	> 10000 nM	–	–	C[C@@](Cc1c[nH]c2ccccc12)(NC(=O)OCc1cccc(C(F)(F)F)c1)C(=O)NCC1(c2ccccn2)CCCCC1 [Example 107, {(S)-2-(1H-Indol-3-yl)-1-methyl-1-[(1-pyridin-2-yl-cyclohexylmethyl)-carbamoyl]-ethyl}-carbamic acid 3-trifluoromethyl-benzyl ester]	–
17 nM	612 nM	–	–	C[C@@](Cc1c[nH]c2ccccc12)(NC(=O)OCc1cccc([N+](=O)[O-])c1)C(=O)NCC1(c2ccccn2)CCCCC1 [Example 99, {(S)-2-(1H-Indol-3-yl)-1-methyl-1-[(1-pyridin-2-yl-cyclohexylmethyl)-carbamoyl]-ethyl}-carbamic acid 3-nitro-benzyl ester]	–

Continued, compound first:

Compound	IC50 [1, 3]	IC50 [2, 3]	IC50 [1, 4]	IC50 [2, 4]	also measured
C[C@@](Cc1c[nH]c2ccccc12)(NC(=O)OC1Cc2ccccc2C1)C(=O)NCC1(c2ccccn2)CCCCC1 [Example 90, {(S)-2-(1H-Indol-3-yl)-1-methyl-1-[(1-pyridin-2-yl-cyclohexylmethyl)-carbamoyl]-ethyl}-carbamic acid indan-2-yl ester]	955 nM	> 10000 nM	–	–	–
COc1ccccc1C(=O)N[C@@](C)(Cc1c[nH]c2ccccc12)C(=O)NCC1(c2ccccn2)CCCCC1 [Example 46, N—{(S)-2-(1H-Indol-3-yl)-1-methyl-1-[(1-pyridin-2-yl-cyclohexylmethyl)-carbamoyl]-ethyl}-2-methoxy-benzamide]	–	–	2560 nM	> 10000 nM	–
C[C@@](Cc1c[nH]c2ccccc12)(NC(=O)Cc1ccccc1F)C(=O)NCC1(c2ccccn2)CCCCC1 [Example 55, (S)-2-[2-(2-Fluoro-phenyl)-ethanoylamino]-3-(1H-indol-3-yl)-2-methyl-N-(1-pyridin-2-yl-cyclohexylmethyl)-propionamide]	–	–	878 nM	1550 nM	–
C[C@@](Cc1c[nH]c2ccccc12)(NC(=O)OCc1ccc2ccccc2c1)C(=O)NCC1(c2ccccn2)CCCCC1 [Example 89, {(S)-2-(1H-Indol-3-yl)-1-methyl-1-[(1-pyridin-2-yl-cyclohexylmethyl)-carbamoyl]-ethyl}-carbamic acid naphthalen-2-ylmethyl ester]	1000 nM	> 10000 nM	–	–	–
C[C@@](Cc1c[nH]c2ccccc12)(NS(=O)(=O)c1ccc(Cl)cc1)C(=O)NCC1(c2ccccn2)CCCCC1 [Example 116]	–	–	–	–	IC50 [1]: 373 nM; IC50 [2]: 4390 nM
Cc1ccccc1C(=O)N[C@@](C)(Cc1c[nH]c2ccccc12)C(=O)NCC1(c2ccccn2)CCCCC1 [Example 47, N—{(S)-2-(1H-Indol-3-yl)-1-methyl-1-[(1-pyridin-2-yl-cyclohexylmethyl)-carbamoyl]-ethyl}-2-methyl-benzamide]	–	–	3280 nM	> 10000 nM	–
C[C@@](Cc1c[nH]c2ccccc12)(NCCc1ccccc1)C(=O)NCC1(c2ccccn2)CCCCC1 [Example 25, (S)-3-(1H-Indol-3-yl)-2-methyl-2-phenylethylamino-N-(1-pyridin-2-yl-cyclohexylmethyl)-propionamide]	–	–	–	–	Ki ([1]; Table 1, human NMB receptor binding affinity, Ki from IC50 by Cheng-Prusoff, read-out: NMB Ki): 616 nM; Ki ([2]; Table 1, human GRP receptor binding affinity, Ki from IC50 by Cheng-Prusoff, read-out: GRP Kj): 2620 nM
CC(C)(C)c1ccc(COC(=O)N[C@@](C)(Cc2c[nH]c3ccccc23)C(=O)NCC2(c3ccccn3)CCCCC2)cc1 [Example 98, {(S)-2-(1H-Indol-3-yl)-1-methyl-1-[(1-pyridin-2-yl-cyclohexylmethyl)-carbamoyl]-ethyl}-carbamic acid 4-tert-butyl-benzyl ester]	1990 nM	> 10000 nM	–	–	–
C[C@@](Cc1c[nH]c2ccccc12)(NC(=O)c1cc2ccccc2[nH]1)C(=O)NCC1(c2ccccn2)CCCCC1 [Example 61, 1H-Indole-2-carboxylic acid {(S)-2-(1H-indol-3-yl)-1-methyl-1-[(1-pyridin-2-yl-cyclohexylmethyl)-carbamoyl]-ethyl}-amide]	–	–	289 nM	527 nM	–
C[C@@](Cc1c[nH]c2ccccc12)(NC(=O)c1cccs1)C(=O)NCC1(c2ccccn2)CCCCC1 [Example 64, Thiophene-2-carboxylic acid {(S)-2-(1H-indol-3-yl)-1-methyl-1-[(1-pyridin-2-yl-cyclohexylmethyl)-carbamoyl]-ethyl}-amide]	–	–	1440 nM	> 10000 nM	–
C[C@@](Cc1c[nH]c2ccccc12)(NC(=O)c1cccc(S(C)(=O)=O)c1)C(=O)NCC1(c2ccccn2)CCCCC1 [Example 41, N—{(S)-2-(1H-Indol-3-yl)-1-methyl-1-[(1-pyridin-2-yl-cyclohexylmethyl)-carbamoyl]-ethyl}-3-methanesulfonyl-benzamide]	–	–	3050 nM	> 10000 nM	–
C[C@@](Cc1c[nH]c2ccccc12)(NS(=O)(=O)Cc1ccccc1)C(=O)NCC1(c2ccccn2)CCCCC1 [Example 111, (S)-3-(1H-indol-3-yl)-2-methyl-2-phenylmethanesulfonylamino-N-(1-pyridin-2-yl-cyclohexylmethyl)-propionamide]	–	–	–	–	IC50 [1]: 186 nM; IC50 [2]: > 10000 nM
C[C@@](Cc1c[nH]c2ccccc12)(NC(=O)Cc1ccccc1[N+](=O)[O-])C(=O)NCC1(c2ccccn2)CCCCC1 [Example 84, (S)-3-(1H-Indol-3-yl)-2-methyl-2-[2-(2-nitro-phenyl)-ethanoylamino]-N-(1-pyridin-2-yl-cyclohexylmethyl)-propionamide]	–	–	1980 nM	> 10000 nM	–
Cc1ccc(C(=O)N[C@@](C)(Cc2c[nH]c3ccccc23)C(=O)NCC2(c3ccccn3)CCCCC2)s1 [Example 75, 5-Methyl-thiophene-2-carboxylic acid {(S)-2-(1H-indol-3-yl)-1-methyl-1-[(1-pyridin-2-yl-cyclohexylmethyl)-carbamoyl]-ethyl}-amide]	–	–	1660 nM	> 10000 nM	–
C[C@@](Cc1c[nH]c2ccccc12)(NC(=O)c1ccncc1)C(=O)NCC1(c2ccccn2)CCCCC1 [Example 58]	–	–	1360 nM	> 10000 nM	–
COc1cccc(S(=O)(=O)N[C@@](C)(Cc2c[nH]c3ccccc23)C(=O)NCC2(c3ccccn3)CCCCC2)c1 [Example 145]	–	–	–	–	IC50 [1]: 295 nM; IC50 [2]: 3690 nM
Cc1ccc(Oc2ccccc2S(=O)(=O)N[C@@](C)(Cc2c[nH]c3ccccc23)C(=O)NCC2(c3ccccn3)CCCCC2)cc1 [Example 153, (S)-3-(1H-indol-3-yl)-2-methyl-N-(1-pyridin-2-yl-cyclohexylmethyl)-2-(2-p-tolyloxy-benzenesulfonylamino)-propionamide]	–	–	–	–	IC50 [1]: 90 nM; IC50 [2]: > 10000 nM
Cc1cccc(C(=O)N[C@@](C)(Cc2c[nH]c3ccccc23)C(=O)NCC2(c3ccccn3)CCCCC2)c1 [Example 43, N—{(S)-2-(1H-Indol-3-yl)-1-methyl-1-[(1-pyridin-2-yl-cyclohexylmethyl)-carbamoyl]-ethyl}-3-methyl-benzamide]	–	–	2350 nM	> 10000 nM	–
COc1ccc(CC(=O)N[C@@](C)(Cc2c[nH]c3ccccc23)C(=O)NCC2(c3ccccn3)CCCCC2)cc1 [Example 82, (S)-3-(1H-Indol-3-yl)-2-[2-(4-methoxy-phenyl)-ethanoylamino]-2-methyl-N-(1-pyridin-2-yl-cyclohexylmethyl)-propionamide]	–	–	1690 nM	> 10000 nM	–
C[C@@](Cc1c[nH]c2ccccc12)(NS(=O)(=O)c1ccccc1-c1ccccc1)C(=O)NCC1(c2ccccn2)CCCCC1 [Example 154, (S)-2-(biphenyl-2-sulfonylamino)-3-(1H-indol-3-yl)-2-methyl-N-(1-pyridin-2-yl-cyclohexylmethyl)-propionamide]	–	–	–	–	IC50 [1]: 166 nM; IC50 [2]: > 10000 nM
